This note sets out measurements from paper PMC10497752, “Heparins are potent inhibitors of ectonucleotide pyrophosphatase/phospho-diesterase-1 (NPP1) – a promising target for the immunotherapy of cancer” (Frontiers in Immunology, 2023).

One test has as its system human CD4+ T cells. The experiment in a line: Induced Treg differentiation assay. The format is cell-based. The following applies: U87 cells preincubated with 20 µM ATP plus heparin; supernatant added to CD4+ T cells, day 5 flow cytometry. On the procedure:
Human CD4^+ T cells were extracted from buffy coats by positive selection using the StraightFrom™ Buffy Coat CD4 MicroBead Kit (Miltenyi Biotec, Bergisch Gladbach, Germany). CD4^+ T cells were stimulated by ImmunoCult™ Human CD3/CD28/CD2 T Cell Activator at day 1. At days 1 and 3, the indicated compounds or U87 cell supernatant, either of untreated or of heparin-treated cells were added to CD4^+ T cells. Cells were harvested at day 5 and were investigated for CD25 and FoxP3 expression. Therefore, cells were washed once with staining buffer (1% BSA, 0.01% NaN3 in PBS). To avoid nonspecific binding, cells were blocked for 15 min with 3% BSA in PBS. Anti-CD25 antibody (PerCP/Cyanine5.5 anti-human CD25 antibody, RRID : AB_2125478, BioLegend Inc, San Diego, CA, USA) was added and the cells were incubated for 30 min in the dark. Subsequently, cells were washed once with staining buffer and fixed in 150 µL of fixation buffer (3% paraformaldehyde (PFA), 0.1% saponin, and 0.5% Tween-20 in Dulbecco's phosphate-buffered saline) for 30 min at 4°C. […] Samples were measured in triplicates using the Guava® easyCyte HT Flow Cytometer (Merck Millipore, Billerica, MA, USA). Compensation and FMO (fluorescence minus one) controls were conducted. […] Data were evaluated using the FlowJo™ v10.5.3 Software (RRID : SCR_008520, BD Life Sciences, Franklin Lakes, NJ, USA) and Graphpad PRISM 8.4.0.
Background: Flow cytometry measures light scatter and fluorescence of single cells or particles in a stream.

Another test addresses T1, human NTPDase1 (CD39) (Homo sapiens, UniProt P49961).
T1 construct: made in house; host or cells: COS-7 cells
T1 sequence (P49961 1-510): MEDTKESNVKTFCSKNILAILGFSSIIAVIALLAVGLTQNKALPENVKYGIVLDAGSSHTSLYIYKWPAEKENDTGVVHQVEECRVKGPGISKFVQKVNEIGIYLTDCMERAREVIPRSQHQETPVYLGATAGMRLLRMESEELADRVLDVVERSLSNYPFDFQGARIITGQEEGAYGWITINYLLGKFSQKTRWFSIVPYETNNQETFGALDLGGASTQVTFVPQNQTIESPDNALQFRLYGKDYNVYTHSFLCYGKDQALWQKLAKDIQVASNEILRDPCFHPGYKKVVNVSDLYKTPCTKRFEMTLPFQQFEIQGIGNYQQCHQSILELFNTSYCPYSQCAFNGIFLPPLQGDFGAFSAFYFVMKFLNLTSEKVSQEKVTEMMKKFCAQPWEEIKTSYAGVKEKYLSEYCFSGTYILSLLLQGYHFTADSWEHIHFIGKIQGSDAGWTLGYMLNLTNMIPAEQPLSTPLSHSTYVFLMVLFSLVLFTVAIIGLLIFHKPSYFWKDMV
The experiment in a line: NTPDase CE-based assay, NTPDase1. The test is classed as biochemical. As to conditions: 20 µg/mL (12 µM); read-out: NTPDase1 inhibition, selectivity study. On the procedure:
For monitoring the activity of human NTPDases (subtypes 1, 2, 3 and 8) in the presence of test compounds, a CE-based assay system was used, according to a published procedure ([11], [25]). The following concentrations of test compounds were investigated in initial screening studies: 63 IU/mL of compounds 1 and 2, 30 µM of compound 6. For selectivity studies, the following concentration were employed: 50 IU/mL of 1, 12 µM of 6, and 48 µM of 7. The amount of enzyme was selected according to previously performed enzymatic titration, and adjusted to ensure a 10–20% conversion rate. Enzymes were obtained by transfection of COS-7 cells using plasmids encoding human NTPDase1 (GenBank accession number U87967) ([26]), NTPDase2 (NM_203468) ([27]), a kind gift of Dr. A.F. Knowles (San Diego, CA), NTPDase3 (AF034840) ([28]), a kind gift of Dr. T.L. Kirley (Cincinnati, OH) and human NTPDase8 (AY430414) ([29]) and purified as previously described ([30], [31]). The reaction buffer consisted of 10 mM HEPES, 2 mM CaCl2, and 1 mM MgCl2, pH 7.4. In the CE assay, the selected substrate concentration (ATP) was 100 µM for all studied human NTPDases (-1, -2, -3 and -8). […] The released products were separated by CE and quantified by their UV-absorption at 260 nm with ADP and AMP as external standards, as previously described ([11]); positive and negative controls were included.

`CO[C@H]1O[C@H](COS(=O)(=O)O)[C@@H](O[C@@H]2O[C@@H](C(=O)O)[C@@H](O[C@H]3O[C@H](COS(=O)(=O)O)[C@@H](O[C@@H]4O[C@H](C(=O)O)[C@@H](O[C@H]5O[C@H](COS(=O)(=O)O)[C@@H](O)[C@H](O)[C@H]5NS(=O)(=O)O)[C@H](O)[C@H]4O)[C@H](OS(=O)(=O)O)[C@H]3NS(=O)(=O)O)[C@H](O)[C@H]2OS(=O)(=O)O)[C@H](O)[C@H]1NS(=O)(=O)O` [Compound 6, Fondaparinux]: the “Treg formation (CD25/FoxP3 positive cells) induced by supernatant of ATP-treated U87 cells” value in the test on human CD4+ T cells is recorded as “reduced Treg formation even below that of the control cells”. Also, at human NTPDase1 (CD39), the inhibition at 12 µM was about 35%.

A word on the inhibition: it is how much of the control response was suppressed.
